Data taken from paper PMC13224100, “Esterase-Responsive Mitochondria-Targeted Hydropersulfide Donors Mitigate Doxorubicin Cardiotoxicity While Preserving Anticancer Activity” (Angewandte Chemie (International ed. in English), 2025).
Marks after values point to notes of the source that are not given here.

How the values were obtained:
[1] = Aqueous stability of RSSH precursors in PBS; assay type: physicochemical
Experimental: We synthesized AST-2 as an esterase-sensitive RSSH donor via reaction of N-acetylpenicillamine methyl ester with methoxycarbonyl sulfenyl chloride in dichloromethane at 0 °C, affording the product in 72% yield (see Scheme S1). We first evaluated the aqueous stability of AST-2 in phosphate-buffered saline (PBS, pH 7.4) at 37 °C.
APT-1 was synthesized in 93% overall yield via a one-pot two-step sequence: N-acetylpenicillamine methyl ester was reacted with chlorocarbonylsulfenyl chloride to afford an S-perthiocarbonyl chloride intermediate, which was subsequently treated with 2-acetoxy-N-methylethan-1-aminium chloride in the presence of triethylamine (see Supporting Information).
We first evaluated the aqueous stability of the mitochondria-targeted analogs AST-2-TPP and APT-1-TPP. […] APT-1-TPP similarly retained excellent stability, with < 5% degradation over 41 h (Figure S1D).

[2] = test system: porcine liver esterase (PLE); test: Quantification of RSSH release (RSS-HPE-AM yield) by HPLC; assay type: biochemical; conditions: pH 7.4 ammonium bicarbonate with DTPA, 37 °C; for RSSH yield (%) (formation of TPP-RSS-HPE-AM): trapping with 50 equiv of HPE-IAM; for RSSH yield (%) (formation of RSS-HPE-AM): HPE-IAM trapping
Experimental: C. Quantification of RSSH Release by HPLC Analysis […]
(PLE, 1 U/mL) in ammonium bicarbonate buffer (100 mM, pH 7.4) containing diethylenetriaminepentaacetic acid (DTPA, 100 µM) at 37 °C. At designated time points, 200 μL aliquots were withdrawn and immediately quenched by mixing with 200 μL o f i c e-cold 0.1% formic acid. Samples were analyzed by HPLC using the same method and conditions as described above. Quantification of the trapped product (RSS-HPE-AM) was carried out using a calibration curve generated in-house with authentic standards. All experiments were performed in triplicate (n = 3), and data are reported as mean ± standard deviation (SD). […]
0.1% formic acid. Samples were analyzed by Agilent HPLC with UV detection using a C18 reverse-phase column (Phenomenex Luna C18, 4.6 × 150 mm, 5 μm) at 25 °C with a flow rate of 1.0 mL/min and an injection volume of 20 μL. The gradient elution (all solvents v/v, containing 0.1% trifluoroacetic acid) was as follows: 0–10 min, linear gradient from 90% water / 10% acetonitrile to 50% water / 50% acetonitrile; 10–18 min, to 10% water / 90% acetonitrile; 18–20 min, held at 10% water / 90% acetonitrile; 20–25 min, return to 90% water / 10% acetonitrile.
Absorbance was monitored at 275 nm. […]

[3] = test system: H9c2 cells; test: Cytoprotection against DOX-induced toxicity, CCK-8 assay; assay type: cell-based; conditions: 4 h pretreatment, then 24 h co-treatment with DOX 5 μM
Experimental: We evaluated the cytoprotective effects of RSSH precursors against DOX-induced cardiotoxicity in H9c2 cardiomyoblasts. First, we assessed the cytotoxicity of the RSSH donors (AST-2, APT-1, AST-2-TPP, and APT-1-TPP) using the CCK-8 assay.[24] […] To evaluate cytoprotection, H9c2 cells were pretreated with RSSH donors for 4 h, followed by 24 h co-treatment with DOX (5 μM). As expected, DOX alone reduced cell viability to ca. 50% (Figure 4a). […] Although both compounds were protective, no enhancement of potency was observed upon TPP conjugation. […] A distinctive feature of our study is the direct comparison between mitochondria-targeted and non-targeted RSSH donors. […] TPP conjugation only modestly enhances the cytoprotective effects of RSSH donors under our experimental conditions. This outcome may reflect the intrinsic high efficacy of non-targeted RSSH donors, thereby limiting the additional benefit of mitochondrial targeting.
Figure 4. Protective effects of RSSH donors against DOX-induced cytotoxicity in H9c2 cells. Cells were pretreated with RSSH donors for 4 h, followed by exposure to DOX (5 μM) for an additional 24 h. Cell viability was assessed using the cell counting Kit-8 (CCK-8) assay. Results are expressed as mean ± SEM, n = 3; *P < 0.05, **P < 0.01, ***P < 0.001, ****P < 0.0001. Ctl = vehicle-treated group (0.01% DMSO in medium). […]
Cytoprotective Effects of RSSH Donors against Doxorubicin Toxicity
Cytoprotective studies were performed as previously described.[8] Briefly, H9c2 cells, HepG2 cells, MDA-MB-468 cells, and MCF-7 cells were seeded at a density of 7 x 10^3 cells/well. […] Additionally, in the vehicle control group, cells were treated with medium (DMEM with 10% FBS) containing 0.01% DMSO only. The cells were then further incubated for an additional 4 h before being treated with DOX (10 μL/well, with final concentration of 5 μM). After a 24 h co-incubation with DOX, each well was carefully washed three times with PBS (pH 7.4) and 100 μL o f F B S-free medium containing 10% v/v CCK-8 (Dojindo) was added. The plates were then incubated for 1-2 h before measuring absorbance at […]
The relative % cell viability was calculated as 100 times the ratio of Abs450 (RSSH donor + DOX-exposed) to Abs450 (vehicle, non-DOX-exposed). Each treatment condition was performed in 6 technical replicates per biological replicate, and the experiment was independently repeated three times (n = 3 biological replicates). Data are presented as mean ± SEM. […]

Row | decomposition (aqueous stability) ([1]; PBS pH 7.4, 37 °C, over 7 h) | RSSH yield (%) (formation of TPP-RSS-HPE-AM) [2] | decomposition (aqueous stability) ([1]; PBS, 37 °C, over 48 h) | RSSH yield (%) (formation of RSS-HPE-AM) [2] | degradation (aqueous stability) ([1]; PBS pH 7.4, 37 °C, over 41 h) | decomposition (aqueous stability) ([1]; PBS pH 7.4, 37 °C, over 9 h) | SMILES | RSSH yield (%) (formation of TPP-RSS-HPE-AM) ([2]; listed as AsT-2-TPP) | concentration of maximal protection [3] | concentration with significant protective effects [3] | protection against DOX-induced cytotoxicity [3]
1 | ca. 20% | 91% | – | – | – | – | COC(=O)SSC(C)(C)C(NC(C)=O)C(=O)N(C)CCC[P+](c1ccccc1)(c1ccccc1)c1ccccc1 (centres unmarked) [AST-2-TPP] | 91^b) % | 25 µM | ≥ 1 µM | dose-dependent protection
2 | – | – | 7% | 92% | – | – | COC(=O)C(NC(C)=O)C(C)(C)SSC(=O)N(C)CCOC(C)=O (centres unmarked) [APT-1] | – | – | – | dose-dependent cytoprotective effect
3 | – | – | – | 95% | < 5% | – | CC(=O)NC(C(=O)N(C)CCC[P+](c1ccccc1)(c1ccccc1)c1ccccc1)C(C)(C)SSC(=O)N(C)CCOC(C)=O (centres unmarked) [APT-1-TPP] | – | – | – | dose-dependent cytoprotective effect
4 | – | – | – | 95% | – | 22% | COC(=O)SSC(C)(C)C(NC(C)=O)C(=O)OC (centres unmarked) [AST-2] | – | 25 µM | ≥ 1 µM | dose-dependent protection
